We go through 26 compounds from PubChem BioAssay (NCI).

Structures are written as SMILES.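 Interpolation was linear, between the two tested concentrations surrounding the appropriate level; five concentrations were tested over 48 hours in 96-well plates. Definition used: TGI = concentration required for complete inhibition of growth.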

The first test deals with NCI-H460 lung. Briefly: NCI tumour cell line growth inhibition, 48 h.
As for `CNC(=O)C(C)C1CCC2(C)C=CC(=O)C(C)=C2C1O` (centres undefined), the TGI was more than 100 µM.
Regarding `Cc1ccc(SCC(CSCCO)OCn2cnc3c2NC(N)=NC32OCCO2)cc1` (centres undefined), the TGI was more than 100 µM.
On to `Cc1cccc2c(=O)cc(-c3ccccc3)[nH]c12`, for which the TGI was more than 100 µM.
`CCN(CC)CCC(=O)Nc1ccc2c(c1)C(=O)c1ccc(NC(=O)CCN(CC)CC)cc1C2=O`: the TGI amounted to 2.74 µM.
In turn, `CC(C)CCCCCCCCCCCCC(=O)NCC(=O)NC1C(C)OC(Nc2ncnc3c2ncn3C)C(O)C1O` (centres undefined) had a TGI of more than 100 µM.
In turn, `CCCCCCCCCCCOc1ccc(C(=O)C(=O)c2ccc(OCCCCCCCCCCC)c(OCCCCCCCCCCC)c2)cc1OCCCCCCCCCCC` yielded a TGI of more than 100 µM.
Same read-out and setting: under `CC(N)Cc1ccc(C(=O)Cl)cc1` (centres undefined) stands more than 100 µM; under `CCC1(O)CC2CC(=O)OC2C1O` (centres undefined), more than 100 µM; under `O=[N+]([O-])/C(C(Cl)=C(Cl)Cl)=C(\SCc1ccccc1)N1CCCCC1`, 78 µM.
The same measure, in the same setting: under `COc1nc(N)c(C(=O)CCl)c(=O)n1C` stands 39.5 µM; under `CC1C=C(CCCCCCCCCCCC[C@@H](O)[C@@H]2CC[C@@H]([C@@H]3CC[C@@H](C(O)CCCCCCCCCCCCC4=C[C@H](C)OC4=O)O3)O2)C(=O)O1` (some centres undefined), more than 100 µM; under `O=C1c2ccccc2C2C1N2C(=O)C(F)(F)F` (centres undefined), more than 100 µM.
`O=C(Cc1cccs1)N[C@@H]1C(=O)N2C(C(=O)OC(c3ccccc3)c3ccccc3)=C(CO)CS[C@H]12` displayed a TGI of more than 100 µM.
`COc1ccc2c(=O)c(O)c(-c3ccc(OC)c(OC)c3)oc2c1` returned a TGI of more than 100 µM.
Same read-out and setting: as for `CC(=O)NNc1nc(C)c(C(=O)NNC(=O)C(=O)Nc2c(Cl)cc([N+](=O)[O-])cc2Cl)s1`, the figure is more than 100 µM.
Still for that read-out and setting: as for `N.N.N.N.O=[N+]([O-])[O-].[Co+3].[N-]=[N+]=[N-].[N-]=[N+]=[N-]`, the figure is more than 100 µM.

For a further test, the system named is RXF 393 renal. Briefly: NCI tumour cell line growth inhibition, 48 h.
`COc1cc([C@@H]2OCC3C(c4ccc5c(c4)OCO5)OCC32)cc(OC)c1OC` (some centres undefined) registered a TGI of more than 100 µM.
On the same count and under the same terms, under `O=C1CCC23CC(C=CC=C12)n1c(=O)n(-c2ccccc2)c(=O)n13` (centres undefined) stands more than 100 µM; under `C[C@]12CC[C@H](O)CC1=CC[C@@H]1C2CC[C@]2(C)C(=O)N(N)C(=O)CC12` (some centres undefined), more than 100 µM.
For the compound `O=C(O)c1cccc2c1/C(=N/Nc1ccccc1)CC2`, the TGI was more than 100 µM.
Still for that read-out and setting: as for `CC1(C)N=C(/C(Cl)=[N+](/[O-])C(=O)c2ccc(F)cc2)C(C)(C)N1O`, the figure is 28.8 µM; as for `[N-]=[N+]=Nc1cc(=O)oc2ccccc12`, more than 100 µM.
`CNC(=O)C(C)C1CCC2(C)C=CC(=O)C(C)=C2C1O` (centres undefined) displayed a TGI of more than 100 µM.
Still for that read-out and setting: as for `Cc1ccc(SCC(CSCCO)OCn2cnc3c2NC(N)=NC32OCCO2)cc1` (centres undefined), the figure is more than 100 µM.
The same measure, in the same setting: under `Cc1cccc2c(=O)cc(-c3ccccc3)[nH]c12` stands 38.2 µM; under `COc1cc([C@@H]2c3cc4c(cc3[C@@H](Nc3ccc([N+](=O)[O-])cc3C(=O)c3ccccc3)[C@H]3COC(=O)[C@H]23)OCO4)cc(OC)c1OC`, more than 100 µM; under `CCN(CC)CCC(=O)Nc1ccc2c(c1)C(=O)c1ccc(NC(=O)CCN(CC)CC)cc1C2=O`, 9.27 µM.
The compound `CC(C)CCCCCCCCCCCCC(=O)NCC(=O)NC1C(C)OC(Nc2ncnc3c2ncn3C)C(O)C1O` (centres undefined) returned a TGI of more than 25.7 µM.
`CC(N)Cc1ccc(C(=O)Cl)cc1` (centres undefined) came in with a TGI of more than 100 µM.
`CCC1(O)CC2CC(=O)OC2C1O` (centres undefined) showed a TGI of more than 100 µM.
Still for that read-out and setting: under `Cc1cn(C2CC(N(O)C(N)=O)C(CO)O2)c(=O)[nH]c1=O` (centres undefined) stands more than 100 µM; under `O=[N+]([O-])/C(C(Cl)=C(Cl)Cl)=C(\SCc1ccccc1)N1CCCCC1`, 62.6 µM.
For the compound `COc1nc(N)c(C(=O)CCl)c(=O)n1C`, the TGI was 20.6 µM.
Still for that read-out and setting: as for `CC1C=C(CCCCCCCCCCCC[C@@H](O)[C@@H]2CC[C@@H]([C@@H]3CC[C@@H](C(O)CCCCCCCCCCCCC4=C[C@H](C)OC4=O)O3)O2)C(=O)O1` (some centres undefined), the figure is more than 100 µM; as for `O=C1c2ccccc2C2C1N2C(=O)C(F)(F)F` (centres undefined), more than 100 µM; as for `O=C(Cc1cccs1)N[C@@H]1C(=O)N2C(C(=O)OC(c3ccccc3)c3ccccc3)=C(CO)CS[C@H]12`, more than 100 µM.

The test system of a further test is SF-295 CNS. Briefly: NCI tumour cell line growth inhibition, 48 h.
Consider `COc1cc([C@@H]2OCC3C(c4ccc5c(c4)OCO5)OCC32)cc(OC)c1OC` (some centres undefined), for which the TGI was more than 100 µM.
The same measure, in the same setting: under `O=C1CCC23CC(C=CC=C12)n1c(=O)n(-c2ccccc2)c(=O)n13` (centres undefined) stands more than 100 µM; under `C[C@]12CC[C@H](O)CC1=CC[C@@H]1C2CC[C@]2(C)C(=O)N(N)C(=O)CC12` (some centres undefined), more than 100 µM.
As to `O=C(O)c1cccc2c1/C(=N/Nc1ccccc1)CC2`, the TGI is more than 100 µM.
The compound `CC1(C)N=C(/C(Cl)=[N+](/[O-])C(=O)c2ccc(F)cc2)C(C)(C)N1O` registered a TGI of 78.4 µM.
On the same count and under the same terms, as for `N#CN=C(N(Cc1ccccc1)Cc1ccccc1)N(Cc1ccccc1)Cc1ccccc1`, the figure is more than 100 µM; as for `[N-]=[N+]=Nc1cc(=O)oc2ccccc12`, more than 100 µM; as for `CCOC(=O)N1CCC2(CC1)C[C@](C)(C(C)=O)C(C)O2` (some centres undefined), more than 100 µM.
`CNC(=O)C(C)C1CCC2(C)C=CC(=O)C(C)=C2C1O` (centres undefined) showed a TGI of more than 70.8 µM.
Still for that read-out and setting: as for `Cc1ccc(SCC(CSCCO)OCn2cnc3c2NC(N)=NC32OCCO2)cc1` (centres undefined), the figure is more than 100 µM; as for `Cc1cccc2c(=O)cc(-c3ccccc3)[nH]c12`, 18.7 µM.
Same read-out and setting: under `COc1cc([C@@H]2c3cc4c(cc3[C@@H](Nc3ccc([N+](=O)[O-])cc3C(=O)c3ccccc3)[C@H]3COC(=O)[C@H]23)OCO4)cc(OC)c1OC` stands more than 100 µM; under `CCN(CC)CCC(=O)Nc1ccc2c(c1)C(=O)c1ccc(NC(=O)CCN(CC)CC)cc1C2=O`, 24 µM.
On the same count and under the same terms, as for `CC(C)CCCCCCCCCCCCC(=O)NCC(=O)NC1C(C)OC(Nc2ncnc3c2ncn3C)C(O)C1O` (centres undefined), the figure is more than 100 µM; as for `CCCCCCCCCCCOc1ccc(C(=O)C(=O)c2ccc(OCCCCCCCCCCC)c(OCCCCCCCCCCC)c2)cc1OCCCCCCCCCCC`, more than 100 µM.
In turn, `CC(N)Cc1ccc(C(=O)Cl)cc1` (centres undefined) came in with a TGI of more than 100 µM.
In the case of `CCC1(O)CC2CC(=O)OC2C1O` (centres undefined), the TGI is more than 100 µM.
The same measure, in the same setting: under `Cc1cn(C2CC(N(O)C(N)=O)C(CO)O2)c(=O)[nH]c1=O` (centres undefined) stands more than 100 µM; under `O=[N+]([O-])/C(C(Cl)=C(Cl)Cl)=C(\SCc1ccccc1)N1CCCCC1`, 81.9 µM.
The same measure, in the same setting: under `COc1nc(N)c(C(=O)CCl)c(=O)n1C` stands 29.4 µM.
Same read-out and setting: under `CC1C=C(CCCCCCCCCCCC[C@@H](O)[C@@H]2CC[C@@H]([C@@H]3CC[C@@H](C(O)CCCCCCCCCCCCC4=C[C@H](C)OC4=O)O3)O2)C(=O)O1` (some centres undefined) stands more than 100 µM.
Take `O=C1c2ccccc2C2C1N2C(=O)C(F)(F)F` (centres undefined): the TGI was more than 100 µM.
`O=C(Cc1cccs1)N[C@@H]1C(=O)N2C(C(=O)OC(c3ccccc3)c3ccccc3)=C(CO)CS[C@H]12` displayed a TGI of more than 100 µM.
On the same count and under the same terms, under `COc1ccc2c(=O)c(O)c(-c3ccc(OC)c(OC)c3)oc2c1` stands 33.1 µM.
In turn, `CC(=O)NNc1nc(C)c(C(=O)NNC(=O)C(=O)Nc2c(Cl)cc([N+](=O)[O-])cc2Cl)s1` gave a TGI of more than 100 µM.
Still for that read-out and setting: under `N.N.N.N.O=[N+]([O-])[O-].[Co+3].[N-]=[N+]=[N-].[N-]=[N+]=[N-]` stands more than 100 µM.

For another test, the system named is SK-OV-3 ovarian. Briefly: NCI tumour cell line growth inhibition, 48 h.
For `COc1cc([C@@H]2OCC3C(c4ccc5c(c4)OCO5)OCC32)cc(OC)c1OC` (some centres undefined), the TGI was more than 100 µM.
`O=C1CCC23CC(C=CC=C12)n1c(=O)n(-c2ccccc2)c(=O)n13` (centres undefined) gave a TGI of more than 100 µM.
